Laboratory results as given in patent US9586951B2 (FUJIFILM Corporation, priority 2013, dated 2017).
Structures can show the parent of a compound that is named as a salt.

target: T1, ATM (Homo sapiens, UniProt Q13315); experiment: ATM inhibition test (phosphorylation of Chk2 generated by ionizing radiation, AlphaScreen SureFire); format: cell-based; conditions: phosphorylated Chk2 in NCI-H460 cells, ionizing radiation 8Gy, 1 hour after test compound treatment; read-out: ATM inhibitory activity
T1 construct: detecting phosphorylation of Chk2 in a human non-small cell lung cancer cell line NCI-H460 (ATCC company); host or cells: NCI-H460 human non-small cell lung cancer cells
T1 sequence (Q13315 whole entry): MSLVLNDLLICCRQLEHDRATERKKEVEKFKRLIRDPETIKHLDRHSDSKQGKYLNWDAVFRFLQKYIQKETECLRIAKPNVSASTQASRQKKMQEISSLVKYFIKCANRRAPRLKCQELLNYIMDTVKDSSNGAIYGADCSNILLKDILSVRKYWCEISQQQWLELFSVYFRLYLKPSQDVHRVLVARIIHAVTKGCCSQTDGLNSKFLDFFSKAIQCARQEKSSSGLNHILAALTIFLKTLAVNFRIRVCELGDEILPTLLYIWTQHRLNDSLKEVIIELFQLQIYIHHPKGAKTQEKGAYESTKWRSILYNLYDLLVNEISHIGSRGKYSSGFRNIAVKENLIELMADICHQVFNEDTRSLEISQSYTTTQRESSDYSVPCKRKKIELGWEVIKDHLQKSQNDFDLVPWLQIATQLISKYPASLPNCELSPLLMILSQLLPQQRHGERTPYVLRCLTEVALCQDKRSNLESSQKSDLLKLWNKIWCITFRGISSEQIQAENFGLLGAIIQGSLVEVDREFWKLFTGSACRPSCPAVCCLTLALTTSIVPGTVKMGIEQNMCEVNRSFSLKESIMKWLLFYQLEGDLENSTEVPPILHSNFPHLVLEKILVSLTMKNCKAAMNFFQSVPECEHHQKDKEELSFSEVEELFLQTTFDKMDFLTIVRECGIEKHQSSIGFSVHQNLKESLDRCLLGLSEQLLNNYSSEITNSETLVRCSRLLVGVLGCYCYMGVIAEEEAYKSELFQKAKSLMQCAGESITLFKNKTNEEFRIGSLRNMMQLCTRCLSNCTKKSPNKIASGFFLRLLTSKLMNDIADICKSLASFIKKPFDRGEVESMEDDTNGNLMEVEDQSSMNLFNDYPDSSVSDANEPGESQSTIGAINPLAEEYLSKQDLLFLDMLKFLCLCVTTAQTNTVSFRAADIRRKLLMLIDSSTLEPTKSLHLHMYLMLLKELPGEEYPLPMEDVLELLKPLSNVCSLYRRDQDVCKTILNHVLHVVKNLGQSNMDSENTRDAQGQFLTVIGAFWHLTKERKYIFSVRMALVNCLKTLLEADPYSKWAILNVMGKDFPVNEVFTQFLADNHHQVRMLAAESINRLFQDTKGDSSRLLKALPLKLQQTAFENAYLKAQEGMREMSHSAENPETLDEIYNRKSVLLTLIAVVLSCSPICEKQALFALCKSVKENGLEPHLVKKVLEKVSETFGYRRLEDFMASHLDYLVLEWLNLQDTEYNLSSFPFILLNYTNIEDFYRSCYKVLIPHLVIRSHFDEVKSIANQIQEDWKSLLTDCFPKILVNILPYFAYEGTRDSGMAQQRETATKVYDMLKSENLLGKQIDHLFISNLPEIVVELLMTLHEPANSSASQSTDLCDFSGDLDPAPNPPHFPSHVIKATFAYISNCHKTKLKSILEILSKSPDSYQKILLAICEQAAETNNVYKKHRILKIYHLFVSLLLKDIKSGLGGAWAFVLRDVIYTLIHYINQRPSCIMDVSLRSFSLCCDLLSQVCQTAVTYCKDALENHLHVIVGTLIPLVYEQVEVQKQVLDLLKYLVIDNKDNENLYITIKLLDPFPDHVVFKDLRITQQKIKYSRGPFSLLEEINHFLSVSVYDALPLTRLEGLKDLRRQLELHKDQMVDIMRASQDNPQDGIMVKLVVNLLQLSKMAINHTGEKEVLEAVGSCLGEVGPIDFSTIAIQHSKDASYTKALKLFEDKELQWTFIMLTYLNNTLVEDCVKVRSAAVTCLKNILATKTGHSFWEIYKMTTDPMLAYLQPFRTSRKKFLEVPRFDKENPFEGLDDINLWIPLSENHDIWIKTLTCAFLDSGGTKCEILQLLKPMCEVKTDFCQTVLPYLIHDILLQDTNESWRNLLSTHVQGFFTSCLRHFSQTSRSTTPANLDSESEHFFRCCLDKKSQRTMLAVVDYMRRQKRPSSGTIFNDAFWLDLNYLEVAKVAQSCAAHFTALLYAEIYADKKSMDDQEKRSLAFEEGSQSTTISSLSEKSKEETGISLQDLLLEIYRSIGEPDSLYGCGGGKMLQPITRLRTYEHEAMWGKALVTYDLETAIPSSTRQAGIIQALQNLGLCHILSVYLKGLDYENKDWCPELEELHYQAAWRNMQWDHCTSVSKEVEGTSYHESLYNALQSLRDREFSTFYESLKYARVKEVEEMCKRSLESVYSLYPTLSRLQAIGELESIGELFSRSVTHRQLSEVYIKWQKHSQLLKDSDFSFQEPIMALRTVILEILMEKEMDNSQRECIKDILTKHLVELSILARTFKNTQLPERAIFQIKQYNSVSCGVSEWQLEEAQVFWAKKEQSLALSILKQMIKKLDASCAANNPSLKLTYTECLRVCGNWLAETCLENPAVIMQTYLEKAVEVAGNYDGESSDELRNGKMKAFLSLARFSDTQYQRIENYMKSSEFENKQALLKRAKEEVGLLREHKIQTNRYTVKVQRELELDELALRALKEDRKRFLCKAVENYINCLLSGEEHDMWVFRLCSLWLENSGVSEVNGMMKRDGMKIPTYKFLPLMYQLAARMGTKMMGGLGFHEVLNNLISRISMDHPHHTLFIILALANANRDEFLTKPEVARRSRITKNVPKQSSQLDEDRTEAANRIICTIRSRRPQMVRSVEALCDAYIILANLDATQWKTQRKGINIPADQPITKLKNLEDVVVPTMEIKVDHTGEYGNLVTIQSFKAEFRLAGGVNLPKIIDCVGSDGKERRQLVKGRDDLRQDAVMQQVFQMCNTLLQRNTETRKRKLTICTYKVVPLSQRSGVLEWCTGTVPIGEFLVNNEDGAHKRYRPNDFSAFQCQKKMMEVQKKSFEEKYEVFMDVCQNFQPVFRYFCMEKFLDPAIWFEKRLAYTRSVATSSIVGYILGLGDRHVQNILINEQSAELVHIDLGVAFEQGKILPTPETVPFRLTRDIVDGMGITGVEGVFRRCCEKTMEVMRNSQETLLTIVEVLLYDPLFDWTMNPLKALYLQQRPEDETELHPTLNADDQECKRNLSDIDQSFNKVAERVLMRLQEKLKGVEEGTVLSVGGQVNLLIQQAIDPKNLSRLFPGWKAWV
In short: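 Phosphorylated Chk2 read by AlphaScreen SureFire in human non-small cell lung cancer NCI-H460 cells, 1 hour after 8Gy ionizing radiation at 37° C. Compound added 1 hour before irradiation. Percent inhibition normalised between irradiated and non-irradiated drug-untreated signals.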

`CC(Nc1ccc2c(c1)Sc1cccc(-c3cc(N4CCOCC4)cc(=O)[nH]3)c1S2)c1ccnc(C#N)n1` (stereo not drawn) [Example 1-12-82, 4-(1-((6-(4-Morpholino-6-oxo-1,6-dihydropyridin-2-yl)thianthren-2-yl)amino)ethyl) pyrimidine-2-carbonitrile] and `CC(Nc1ccc2c(c1)Cc1cccc(-c3cc(N4CCOCC4)cc(=O)[nH]3)c1O2)c1ccnc(C#N)n1` (stereo not drawn) [Example 2-14-58, 4-(1-((5-(4-Morpholino-6-oxo-1,6-dihydropyridin-2-yl)-9H-xanthen-2-yl)amino)ethyl)pyrimidine-2-carbonitrile] fall in the same range of IC50: 0.1 to 0.5 µM for the first, 0.1 to 0.5 µM for the second.

`CN(C)C1CCN(c2cccc(CNc3ccc4c(c3)Sc3cccc(-c5cc(N6CCOCC6)cc(=O)[nH]5)c3S4)n2)C1` (stereo not drawn) [Example 1-12-35, 6-(7-(((6-(3-(Dimethylamino)pyrrolidin-1-yl)pyridin-2-yl)methyl)amino)thianthren-1-yl)-4-morpholino pyridin-2 (1H)-one] and `O=c1cc(N2CCOCC2)cc(-c2cccc3c2Sc2ccc(NCc4cscn4)cc2S3)[nH]1` [Example 1-12-53, 4-Morpholino-6-(7-((thiazol-4-ylmethyl)amino)thianthren-1-yl)pyridin-2 (1H)-one] fall in the same range of IC50: 0.1 to 0.5 µM for the first, 0.1 to 0.5 µM for the second.

First: Cc1ccc(C(Nc2ccc3c(c2)Sc2cccc(-c4cc(N5CCOCC5)cc(=O)[nH]4)c2S3)C2CCN(CCF)CC2)nc1 (stereo not drawn) [Example 1-56-6, 6-(7-(((1-(2-Fluoroethyl)piperidin-4-yl)(5-methylpyridin-2-yl)methyl)amino)thianthren-1-yl)-4-morpholino pyridin-2(1H)-one]
Second: COc1ccc(CCN2CCC(Nc3ccc4c(c3)Sc3cccc(-c5cc(N6CCOCC6)cc(=O)[nH]5)c3S4)CC2)cc1 [Example 1-27, 6-(7-((1-(4-methoxyphenethyl)piperidin-4-yl)amino)thianthren-1-yl)-4-morpholinopyridin-2(1H)-one]
The IC50 of the first is lower: under 0.1 µM for the first, 0.1 to 0.5 µM for the second.

`COc1ccc(C2c3cc(N)ccc3Oc3c2ccnc3-c2cc(N3CCOCC3)cc(=O)[nH]2)cc1` (stereo not drawn) [Example 2-66, Hydrochloride of 6-(7-amino-5-(4-methoxyphenyl)-5H-chromeno[2,3-c]pyridin-1-yl)-4-morpholinopyridin-2(1H)-one] and `CCC(Nc1ccc2c(c1)Cc1cccc(-c3cc(N4CCOCC4)cc(=O)[nH]3)c1O2)c1cncc(OC)c1` (single isomer, unassigned) [Example 2-37, 6-(7-((1-(5-methoxypyridin-3-yl)propyl)amino)-9H-xanthen-4-yl)-4-morpholinopyridin-2(1H)-one] fall in the same range of IC50: 0.1 to 0.5 µM for the first, 0.1 to 0.5 µM for the second.

First: CCOc1ccc(CNc2ccc3c(c2)Cc2cccc(-c4cc(N5CCOCC5)cc(=O)[nH]4)c2O3)cn1 [Example 2-2-23, 6-(7-(((6-Ethoxypyridin-3-yl)methyl)amino)-9H-xanthen-4-yl)-4-morpholino pyridin-2(1H)-one]
Second: O=c1cc(N2CCOCC2)cc(-c2cccc3c2Oc2ccc(NCc4cnc5occc5c4)cc2C3)[nH]1 [Example 2-2-44, 6-(7-((Furo[2,3-b]pyridin-5-ylmethyl)amino)-9H-xanthen-4-yl)-4-morpholino pyridin-2(1H)-one]
The IC50 of the first is higher: 0.1 to 0.5 µM for the first, under 0.1 µM for the second.

`O=c1cc(N2CCOCC2)cc(-c2cccc3c2Sc2ccc(NCC4CCN(Cc5cccnc5)CC4)cc2S3)[nH]1` [Example 1-11, 4-morpholino-6-(7-(((1-(pyridin-3-ylmethyl)piperidin-4-yl)methyl)amino)thianthren-1-yl)pyridin-2(1H)-one] and `COc1ccncc1CN1CCC(Nc2ccc3c(c2)Sc2cccc(-c4cc(N5CCOCC5)cc(=O)[nH]4)c2S3)CC1` [Example 1-45, 6-(7-((1-((4-Methoxypyridin-3-yl)methyl)piperidin-4-yl)amino)thianthren-1-yl)-4-morpholinopyridin-2(1H)-one] fall in the same range of IC50: 0.1 to 0.5 µM for the first, 0.1 to 0.5 µM for the second.

Compared with `O=c1cc(N2CCOCC2)cc(-c2cccc3c2Sc2ccc(NCCN4CCC(F)(F)C4)cc2S3)[nH]1` [Example 1-10-2, 6-(7-((2-(3,3-Difluoropyrrolidin-1-yl)ethyl)amino)thianthren-1-yl)-4-morpholinopyridin-2(1H)-one], `O=C(CN1CCCOCC1)Nc1ccc2c(c1)Sc1cccc(-c3cc(N4CCOCC4)cc(=O)[nH]3)c1S2` [Example 1-7-3, N-(6-(4-morpholino-6-oxo-1,6-dihydropyridin-2-yl)thianthren-2-yl)-2-(1,4-oxazepan-4-yl)acetamide] is higher in IC50: 0.1 to 0.5 µM for the first, 0.5 to 2 µM for the second.

First: N#Cc1ccc(CNc2ccc3c(c2)Cc2cccc(-c4cc(N5CCOCC5)cc(=O)[nH]4)c2O3)s1 [Example 2-14-32, 6-(7-(((5-Isocycanothiophen-2-yl)methyl)amino)-9H-xanthen-4-yl)-4-morpholino pyridin-2(1H)-one]
Second: O=c1cc(N2CCOCC2)cc(-c2cccc3c2Oc2ccc(NCc4cncc(-c5cn[nH]c5)c4)cc2C3)[nH]1 [Example 2-8-2, 6-(7-(((5-(1H-pyrazol-4-yl)pyridin-3-yl)methyl)amino)-9H-xanthen-4-yl)-4-morpholinopyridin-2(1H)-one]
The IC50 of the first is lower: under 0.1 µM for the first, 0.1 to 0.5 µM for the second.

`CNc1ncccc1CNc1ccc2c(c1)Sc1cccc(-c3cc(N4CCOCC4)cc(=O)[nH]3)c1S2` [Example 1-12-24, 6-(7-(((2-(Methylamino)pyridin-3-yl)methyl)amino)thianthren-1-yl)-4-morpholino pyridin-2(1H)-one] and `O=c1cc(N2CCOCC2)cc(-c2cccc3c2Sc2ccc(NCc4ccncn4)cc2S3)[nH]1` [Example 1-12-36, 4-Morpholino-6-(7-((pyrimidin-4-ylmethyl)amino)thianthren-1-yl) pyridin-2(1H)-one] fall in the same range of IC50: 0.1 to 0.5 µM for the first, 0.1 to 0.5 µM for the second.

Compared with `N#CCC(CN1CCOCC1)Nc1ccc2c(c1)Sc1cccc(-c3cc(N4CCOCC4)cc(=O)[nH]3)c1S2` (stereo not drawn) [Example 9-2, 4-Morpholino-3-((6-(4-morpholino-6-oxo-1,6-dihydropyridin-2-yl)thianthren-2-yl)amino)butanenitrile], `O=c1cc(N2CCOCC2)cc(-c2cccc3c2Sc2ccc(N[C@@H]4COC[C@H]4N4CCOCC4)cc2S3)[nH]1` (relative stereo) [Example 1-60, Trans-4-morpholino-6-(7-((4-morpholinotetrahydrofuran-3-yl)amino)thianthren-1-yl)pyridin-2(1H)-one] is lower in IC50: 0.1 to 0.5 µM for the first, under 0.1 µM for the second.

Compared with `Cc1ccc(C(Nc2ccc3c(c2)Cc2cccc(-c4cc(N5CCOCC5)cc(=O)[nH]4)c2O3)[C@H]2CN(C)CCO2)nc1` (stereo partly drawn) [Example 2-67, 6-(7-((((R)-4-methylmorpholin-2-yl)(5-methylpyridin-2-yl)methyl)amino)-9H-xanthen-4-yl)-4-morpholinopyridin-2(1H)-one], `CNc1ncc(C(C)Nc2ccc3c(c2)Cc2cccc(-c4cc(N5CCOCC5)cc(=O)[nH]4)c2O3)cn1` (stereo not drawn) [Example 2-14-54, 6-(7-((1-(2-(Methylamino)pyrimidin-5-yl)ethyl)amino)-9H-xanthen-4-yl)-4-morpholino pyridin-2(1H)-one] is higher in IC50: under 0.1 µM for the first, 0.1 to 0.5 µM for the second.

`CC(C)Nc1cncc(CNc2ccc3c(c2)Sc2cccc(-c4cc(N5CCOCC5)cc(=O)[nH]4)c2O3)c1` [Example 4-8-26] and `CC(C)(C)OC(=O)N1CCCC(Nc2ccc3c(c2)Cc2cccc(-c4cc(N5CCOCC5)cc(=O)[nH]4)c2O3)CC1` (stereo not drawn) [Example 2-3-11, tert-Butyl 4-((5-(4-morpholino-6-oxo-1,6-dihydropyridin-2-yl)-9H-xanthen-2-yl)amino) azepane-1-carboxylate] fall in the same range of IC50: 0.1 to 0.5 µM for the first, 0.1 to 0.5 µM for the second.
